Measurements reported in ChEMBL document CHEMBL4020826 (J Med Chem, 2018).

Key:
[1] = target: T1, Metabotropic glutamate receptor 2 (Homo sapiens, UniProt Q14416); experiment: Displacement of [3H]-LY459477 from recombinant human mGlu2 receptor expressed in HEK cell membranes after 90 mins by liquid scintillation counting
[2] = target: T1, Metabotropic glutamate receptor 2; experiment: Agonist activity at human mGlu2 receptor expressed in HEK cells assessed as inhibition of forskolin-stimulated cAMP formation after 20 mins by HTRF assay; format: functional, cell-based
[3] = target: T2, Metabotropic glutamate receptor 3 (Homo sapiens, UniProt Q14832)
Description: Agonist activity at human mGlu3 receptor expressed in HEK cells assessed as inhibition of forskolin-stimulated cAMP formation after 20 mins by HTRF assay

[4] = target: T2, Metabotropic glutamate receptor 3; experiment: biochemical
Description: Displacement of [3H]-LY459477 from recombinant human mGlu3 receptor expressed in HEK cell membranes after 90 mins by liquid scintillation counting

[5] = target: T1, Metabotropic glutamate receptor 2; experiment: Antagonist activity at human mGlu2 receptor expressed in HEK cells assessed as reversal of DCG-4 inhibited forskolin-stimulated cAMP formation after 20 mins by HTRF assay; format: functional, cell-based
[6] = target: T2, Metabotropic glutamate receptor 3; experiment: Antagonist activity at human mGlu3 receptor expressed in HEK cells assessed as reversal of DCG-4 inhibited forskolin-stimulated cAMP formation after 20 mins by HTRF assay; format: functional, cell-based

T1 sequence (Q14416 whole entry): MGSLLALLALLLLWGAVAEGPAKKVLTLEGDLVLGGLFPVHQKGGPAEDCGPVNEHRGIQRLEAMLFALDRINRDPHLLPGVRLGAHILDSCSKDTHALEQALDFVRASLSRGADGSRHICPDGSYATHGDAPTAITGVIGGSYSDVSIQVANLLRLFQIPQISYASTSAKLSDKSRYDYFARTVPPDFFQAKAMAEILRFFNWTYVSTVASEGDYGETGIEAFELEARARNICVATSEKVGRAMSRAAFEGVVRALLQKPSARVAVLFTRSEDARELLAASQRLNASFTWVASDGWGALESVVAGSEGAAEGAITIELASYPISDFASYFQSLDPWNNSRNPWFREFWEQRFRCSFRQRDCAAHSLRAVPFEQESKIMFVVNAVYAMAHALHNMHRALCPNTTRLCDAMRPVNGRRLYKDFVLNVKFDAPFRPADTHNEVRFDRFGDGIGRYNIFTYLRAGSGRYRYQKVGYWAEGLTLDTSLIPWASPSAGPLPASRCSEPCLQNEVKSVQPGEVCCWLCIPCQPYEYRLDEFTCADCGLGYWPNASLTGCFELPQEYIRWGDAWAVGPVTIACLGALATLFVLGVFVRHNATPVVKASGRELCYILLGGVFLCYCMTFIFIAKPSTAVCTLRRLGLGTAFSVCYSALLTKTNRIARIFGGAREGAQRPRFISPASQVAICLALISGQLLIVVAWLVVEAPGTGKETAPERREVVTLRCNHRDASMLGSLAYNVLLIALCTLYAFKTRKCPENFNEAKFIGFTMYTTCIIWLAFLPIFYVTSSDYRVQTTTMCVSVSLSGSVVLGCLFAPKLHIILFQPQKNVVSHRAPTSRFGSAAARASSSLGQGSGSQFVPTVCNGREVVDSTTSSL
T2 sequence (Q14832 whole entry): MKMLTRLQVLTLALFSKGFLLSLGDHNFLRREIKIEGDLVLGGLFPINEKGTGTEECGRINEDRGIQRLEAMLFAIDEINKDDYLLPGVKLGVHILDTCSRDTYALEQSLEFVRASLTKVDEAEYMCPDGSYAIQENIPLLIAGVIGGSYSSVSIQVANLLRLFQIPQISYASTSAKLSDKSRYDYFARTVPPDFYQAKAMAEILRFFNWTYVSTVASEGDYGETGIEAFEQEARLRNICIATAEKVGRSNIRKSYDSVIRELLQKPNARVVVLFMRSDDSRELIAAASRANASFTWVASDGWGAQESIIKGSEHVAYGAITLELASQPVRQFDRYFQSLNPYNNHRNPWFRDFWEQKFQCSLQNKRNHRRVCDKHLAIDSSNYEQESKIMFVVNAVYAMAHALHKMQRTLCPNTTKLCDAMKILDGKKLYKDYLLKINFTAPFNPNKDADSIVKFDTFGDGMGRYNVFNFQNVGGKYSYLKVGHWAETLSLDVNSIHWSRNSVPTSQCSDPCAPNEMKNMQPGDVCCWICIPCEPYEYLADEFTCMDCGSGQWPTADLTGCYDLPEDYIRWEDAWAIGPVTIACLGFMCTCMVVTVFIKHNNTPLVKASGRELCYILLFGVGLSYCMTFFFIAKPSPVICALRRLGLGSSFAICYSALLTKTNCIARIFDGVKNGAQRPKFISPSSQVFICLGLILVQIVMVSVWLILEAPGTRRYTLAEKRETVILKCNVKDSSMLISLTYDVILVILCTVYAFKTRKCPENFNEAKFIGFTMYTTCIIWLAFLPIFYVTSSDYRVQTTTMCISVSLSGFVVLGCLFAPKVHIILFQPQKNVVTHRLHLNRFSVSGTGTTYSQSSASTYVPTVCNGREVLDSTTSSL

Row | SMILES | Ki [1] [nM] | EC50 [2] [nM] | EC50 [3] [nM] | Ki [4] [nM] | IC50 [5] [nM] | IC50 [6] [nM]
1 | N[C@@]1(C(=O)O)C[C@H](NCc2ccccc2)[C@H]2[C@H](C(=O)O)[C@H]21 | 11200 | 508 | 356 | 1070 | – | –
2 | CC(=O)N[C@H]1C[C@@](N)(C(=O)O)[C@@H]2[C@@H](C(=O)O)[C@@H]21 | 898 | – | – | 177 | – | –
3 | N[C@@]1(C(=O)O)C[C@H](NC(=O)c2cccc(F)c2)[C@H]2[C@H](C(=O)O)[C@H]21 | 214 | 18.1 | 2 | 2.11 | – | –
4 | N[C@@]1(C(=O)O)C[C@H](NC(=O)c2ccccc2F)[C@H]2[C@H](C(=O)O)[C@H]21 | 218 | 17.1 | 5.1 | 5.79 | – | –
5 | N[C@@]1(C(=O)O)C[C@H](NC(=O)C2CCCCC2)[C@H]2[C@H](C(=O)O)[C@H]21 | 1520 | 3390 | > 25000 | 757 | 12000 | 9990
6 | N[C@H]1C[C@@](N)(C(=O)O)[C@@H]2[C@@H](C(=O)O)[C@@H]21 | 4410 | – | – | 284 | – | –
7 | N[C@@]1(C(=O)O)C[C@H](NC(=O)CCc2ccccc2)[C@H]2[C@H](C(=O)O)[C@H]21 | 595 | 893 | > 25000 | 281 | 5540 | 2050
8 | N[C@@]1(C(=O)O)C[C@H](NC(=O)c2ccccc2O)[C@H]2[C@H](C(=O)O)[C@H]21 | 58.2 | 7.44 | 0.17 | 1.79 | – | –
9 | COc1ccccc1C(=O)N[C@H]1C[C@@](N)(C(=O)O)[C@@H]2[C@@H](C(=O)O)[C@@H]21 | 151 | 26.5 | 7.15 | 23.2 | – | –

The next lines start with the values.

Row | Ki [1] [nM] | EC50 [2] [nM] | EC50 [3] [nM] | Ki [4] [nM] | IC50 [5] [nM] | IC50 [6] [nM] | SMILES
10 | 54.7 | 6.32 | 2.12 | 9.34 | – | – | N[C@@]1(C(=O)O)C[C@H](NC(=O)c2ccc(O)cc2)[C@H]2[C@H](C(=O)O)[C@H]21
11 | 294 | 19.8 | 4.96 | 6.75 | – | – | N[C@@]1(C(=O)O)C[C@H](NC(=O)c2ccccc2)[C@H]2[C@H](C(=O)O)[C@H]21
12 | 85.3 | 8.37 | 0.82 | 0.47 | – | – | N[C@@]1(C(=O)O)C[C@H](NC(=O)c2cccc(Cl)c2)[C@H]2[C@H](C(=O)O)[C@H]21
13 | 188 | 16 | 2.44 | 4.56 | – | – | COc1ccc(C(=O)N[C@H]2C[C@@](N)(C(=O)O)[C@@H]3[C@@H](C(=O)O)[C@@H]32)cc1
14 | 391 | 42.5 | 4.96 | 27.4 | – | – | N[C@@]1(C(=O)O)C[C@H](NC(=O)c2ccccc2Cl)[C@H]2[C@H](C(=O)O)[C@H]21
15 | 330 | 19.1 | 6.6 | 4.34 | – | – | N[C@@]1(C(=O)O)C[C@H](NC(=O)c2ccc(F)cc2)[C@H]2[C@H](C(=O)O)[C@H]21
16 | 137 | 6.97 | 5.15 | 2.29 | – | – | N[C@@]1(C(=O)O)C[C@H](NC(=O)c2ccc(Cl)cc2)[C@H]2[C@H](C(=O)O)[C@H]21
17 | 31.5 | 3.77 | 0.71 | 2.27 | – | – | N[C@@]1(C(=O)O)C[C@H](NC(=O)c2cccc(O)c2)[C@H]2[C@H](C(=O)O)[C@H]21
